Reference: PubChem BioAssay AID1963862 (Molecular Pharmacology Branch, DTP, NCI, 2024)

System: KRAS patient-derived spheroids with HUVEC/MSC, viability
Test: Anticancer human tumor 941728-121-R-J1-PDC patient-derived lung adenocarcinoma cell line growth inhibition [KRAS2]
Settings: for IC50: curve of first compound; for viability, T/C: stronger effect = lower value
Method in brief: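 KRAS-mutant tumor cells were grown as spheroids with HUVEC endothelial cells and human MSCs as stroma. Targeted agents were tested alone and with KRAS pathway inhibitors. Doses started at or near clinical Cmax, or 10 microM, descending half-log.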

[1] = second compound 0.1 µM, first compound 0.0316 µM
[2] = second compound 0.1 µM, first compound 0.1 µM
[3] = second compound 0.1 µM, first compound 0.316 µM
[4] = second compound 0.1 µM, first compound 1 µM
[5] = second compound 0.1 µM, first compound 3.16 µM
[6] = second compound 0.1 µM, first compound 10 µM
[7] = second compound 0.316 µM, first compound 0.0316 µM
[8] = second compound 0.316 µM, first compound 0.1 µM
[9] = second compound 0.316 µM, first compound 0.316 µM
[10] = second compound 0.316 µM, first compound 1 µM
[11] = second compound 0.316 µM, first compound 3.16 µM
[12] = second compound 0.316 µM, first compound 10 µM
[13] = second compound 1 µM, first compound 0.0316 µM
[14] = second compound 1 µM, first compound 0.1 µM
[15] = second compound 1 µM, first compound 0.316 µM
[16] = second compound 1 µM, first compound 1 µM
[17] = second compound 1 µM, first compound 3.16 µM
[18] = second compound 1 µM, first compound 10 µM
[19] = second compound 3.16 µM, first compound 0.0316 µM
[20] = second compound 3.16 µM, first compound 0.1 µM
[21] = second compound 3.16 µM, first compound 0.316 µM
[22] = second compound 3.16 µM, first compound 1 µM
[23] = second compound 3.16 µM, first compound 3.16 µM
[24] = second compound 3.16 µM, first compound 10 µM
[25] = second compound 10 µM, first compound 0.0316 µM
[26] = second compound 10 µM, first compound 0.1 µM
[27] = second compound 10 µM, first compound 0.316 µM
[28] = second compound 10 µM, first compound 1 µM
[29] = second compound 10 µM, first compound 3.16 µM
[30] = second compound 10 µM, first compound 10 µM
[31] = second compound 0.1 µM, first compound 0.000316 µM
[32] = second compound 0.1 µM, first compound 0.001 µM
[33] = second compound 0.1 µM, first compound 0.00316 µM
[34] = second compound 0.1 µM, first compound 0.01 µM
[35] = second compound 0.316 µM, first compound 0.000316 µM
[36] = second compound 0.316 µM, first compound 0.001 µM
[37] = second compound 0.316 µM, first compound 0.00316 µM
[38] = second compound 0.316 µM, first compound 0.01 µM
[39] = second compound 1 µM, first compound 0.000316 µM
[40] = second compound 1 µM, first compound 0.001 µM
[41] = second compound 1 µM, first compound 0.00316 µM
[42] = second compound 1 µM, first compound 0.01 µM
[43] = second compound 3.16 µM, first compound 0.000316 µM
[44] = second compound 3.16 µM, first compound 0.001 µM
[45] = second compound 3.16 µM, first compound 0.00316 µM
[46] = second compound 3.16 µM, first compound 0.01 µM
[47] = second compound 10 µM, first compound 0.000316 µM
[48] = second compound 10 µM, first compound 0.001 µM
[49] = second compound 10 µM, first compound 0.00316 µM
[50] = second compound 10 µM, first compound 0.01 µM
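Note: spheroids exposed to agents for seven days before readout.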

SMILES | IC50 (second compound 0.1 µM) [nM] | IC50 (second compound 0.316 µM) [nM] | IC50 (second compound 1 µM) [nM] | IC50 (second compound 3.16 µM) [nM] | IC50 (second compound 10 µM) [nM] | viability, T/C [1] [%] | viability, T/C [2] [%] | viability, T/C [3] [%] | viability, T/C [4] [%] | viability, T/C [5] [%] | viability, T/C [6] [%] | viability, T/C [7] [%] | viability, T/C [8] [%] | viability, T/C [9] [%] | viability, T/C [13] [%] | viability, T/C [14] [%] | viability, T/C [19] [%] | viability, T/C [20] [%] | viability, T/C [25] [%] | viability, T/C [26] [%] | other results
CC(C)NCC(C(=O)N1CCN(c2ncnc3c2C(C)CC3O)CC1)c1ccc(Cl)cc1 (stereo not given) + CNCc1ccccc1-c1csc(C(C)Nc2nc(C)nc3cc(OC)c(OC)cc23)c1 | 218 | < 31.6 | < 31.6 | < 31.6 | < 31.6 | 68.6 | 57 | 47.9 | 33.3 | 28.1 | 16.6 | 42.3 | 42.9 | 29.1 | 23.9 | 33.2 | 0.08 | 0.12 | 0.16 | 0.15 | viability, T/C [10]: 24.7%; viability, T/C [11]: 22.4%; viability, T/C [12]: 12.4%; viability, T/C [15]: 21.2%; viability, T/C [16]: 16.1%; viability, T/C [17]: 6.11%; viability, T/C [18]: 4.4%; viability, T/C [21]: 0.11%; viability, T/C [22]: 0.08%; viability, T/C [23]: 0.04%; viability, T/C [24]: 0.16%; viability, T/C [27]: 0.12%; viability, T/C [28]: 1.66%; viability, T/C [29]: 0.11%; viability, T/C [30]: 0.25%
CC(C)n1nc(-c2ccc3oc(N)nc3c2)c2c(N)ncnc21 + CNCc1ccccc1-c1csc(C(C)Nc2nc(C)nc3cc(OC)c(OC)cc23)c1 | 0.668 | < 0.316 | < 0.316 | < 0.316 | < 0.316 | 34.5 | 31.4 | – | – | – | – | 24.1 | 16.6 | – | 11 | 7.65 | 0.08 | 0.13 | 0.67 | 0.72 | viability, T/C [31]: 49%; viability, T/C [32]: 59.2%; viability, T/C [33]: 37.3%; viability, T/C [34]: 34.3%; viability, T/C [35]: 44.7%; viability, T/C [36]: 45.2%; viability, T/C [37]: 35.9%; viability, T/C [38]: 23.1%; viability, T/C [39]: 34.8%; viability, T/C [40]: 29.3%; viability, T/C [41]: 15.9%; viability, T/C [42]: 13.6%; viability, T/C [43]: 0.15%; viability, T/C [44]: 0.16%; viability, T/C [45]: 0.1%; viability, T/C [46]: 0.11%; viability, T/C [47]: 0.58%; viability, T/C [48]: 0.43%; viability, T/C [49]: 2.78%; viability, T/C [50]: 0.67%
CC1(C)CCC(CN2CCN(c3ccc(C(=O)NS(=O)(=O)c4ccc(NCC5CCOCC5)c([N+](=O)[O-])c4)c(Oc4cnc5[nH]ccc5c4)c3)CC2)=C(c2ccc(Cl)cc2)C1 + CNCc1ccccc1-c1csc(C(C)Nc2nc(C)nc3cc(OC)c(OC)cc23)c1 | < 31.6 | < 31.6 | < 31.6 | < 31.6 | < 31.6 | 41.7 | 41.8 | 41.4 | 39.2 | 6.99 | 4.92 | 39.8 | 36 | 33.4 | 27 | 31.7 | 0.19 | 0.17 | 0.11 | 0.11 | viability, T/C [10]: 35.1%; viability, T/C [11]: 7.18%; viability, T/C [12]: 2.59%; viability, T/C [15]: 23.2%; viability, T/C [16]: 22.6%; viability, T/C [17]: 4.9%; viability, T/C [18]: 1.48%; viability, T/C [21]: 0.27%; viability, T/C [22]: 0.69%; viability, T/C [23]: 0.04%; viability, T/C [24]: 0.12%; viability, T/C [27]: 0.09%; viability, T/C [28]: 0.33%; viability, T/C [29]: 0.1%; viability, T/C [30]: 0.12%
COc1cc(Nc2ncc3c(n2)-c2ccc(Cl)cc2C(c2c(F)cccc2OC)=NC3)ccc1C(=O)O + CNCc1ccccc1-c1csc(C(C)Nc2nc(C)nc3cc(OC)c(OC)cc23)c1 | < 31.6 | < 31.6 | < 31.6 | < 31.6 | < 31.6 | 48.4 | 47.5 | 37.5 | 45.4 | 47.6 | 34.7 | 44.2 | 36 | 32.6 | 31.4 | 28.4 | 0.4 | 0.28 | 0.15 | 0.22 | viability, T/C [10]: 32.2%; viability, T/C [11]: 36.4%; viability, T/C [12]: 33.6%; viability, T/C [15]: 27.3%; viability, T/C [16]: 27.5%; viability, T/C [17]: 25.6%; viability, T/C [18]: 15.1%; viability, T/C [21]: 0.18%; viability, T/C [22]: 0.33%; viability, T/C [23]: 0.26%; viability, T/C [24]: 4.13%; viability, T/C [27]: 0.1%; viability, T/C [28]: 0.1%; viability, T/C [29]: 0.11%; viability, T/C [30]: 0.5%
COc1cc2nccc(Oc3ccc(NC(=O)C4(C(=O)Nc5ccc(F)cc5)CC4)cc3)c2cc1OC + CNCc1ccccc1-c1csc(C(C)Nc2nc(C)nc3cc(OC)c(OC)cc23)c1 | 85.5 | < 31.6 | < 31.6 | < 31.6 | < 31.6 | 59.8 | 46.5 | 42.2 | 39.7 | 19.2 | 39.2 | 39 | 34.5 | 28.8 | 16.1 | 21 | 0.1 | 0.43 | 0.36 | 0.07 | viability, T/C [10]: 21.3%; viability, T/C [11]: 12.4%; viability, T/C [12]: 25.4%; viability, T/C [15]: 10.2%; viability, T/C [16]: 5.77%; viability, T/C [17]: 2.51%; viability, T/C [18]: 8.64%; viability, T/C [21]: 0.05%; viability, T/C [22]: 0.1%; viability, T/C [23]: 0.03%; viability, T/C [24]: 0.12%; viability, T/C [27]: 0.08%; viability, T/C [28]: 0.08%; viability, T/C [29]: 0.31%; viability, T/C [30]: 0.21%
Cn1ncnc1[C@H]1c2n[nH]c(=O)c3cc(F)cc(c23)N[C@@H]1c1ccc(F)cc1 + CNCc1ccccc1-c1csc(C(C)Nc2nc(C)nc3cc(OC)c(OC)cc23)c1 | 6.44 | < 0.316 | < 0.316 | < 0.316 | < 0.316 | 44.3 | 37.2 | – | – | – | – | 26.3 | 27.4 | – | 10.9 | 15.1 | 0.09 | 0.18 | 0.12 | 0.16 | viability, T/C [31]: 52.8%; viability, T/C [32]: 70.3%; viability, T/C [33]: 47.4%; viability, T/C [34]: 44.4%; viability, T/C [35]: 35.8%; viability, T/C [36]: 30.6%; viability, T/C [37]: 27.9%; viability, T/C [38]: 29.3%; viability, T/C [39]: 14.4%; viability, T/C [40]: 15.7%; viability, T/C [41]: 15.4%; viability, T/C [42]: 14.4%; viability, T/C [43]: 0.11%; viability, T/C [44]: 0.05%; viability, T/C [45]: 0.16%; viability, T/C [46]: 0.06%; viability, T/C [47]: 0.08%; viability, T/C [48]: 0.09%; viability, T/C [49]: 0.08%; viability, T/C [50]: 0.09%
